From patent US4432983A (Research Corporation, priority 1981, dated 1984)
Entries after “also recorded” stand apart in the source; their conditions may differ.

Legend:
[1] = biological target: T1, histamine H2-receptor (isolated guinea pig right atrium) (Cavia porcellus, UniProt P47747); assay: Histamine H2-receptor antagonism: histamine-induced chronotropic response of isolated guinea pig right atrium; details: for Slope (95% CL): slope of histamine log dose-response regression line; for Slope (95% CL) / ED50 of histamine (95% CL): alone (control) or in presence of 10^-6 M compound, 95% CL in brackets; for ED50 of histamine (95% CL): histamine ED50 for increase in heart rate, 10^-6 M propranolol; for histamine H2-receptor antagonist activity / slope / shift of the histamine log dose-response curve in presence of compound: result in words; for histamine H2-receptor antagonist activity: 10^-6 M, guinea pig right atrium; for ED50 of histamine on the right atrium: histamine alone or with 10^-6 M antagonist, ± as printed in text
T1 construct: All other tissue was carefully trimmed away, leaving only the right atrium; from tissue; host or cells: isolated right atrium of guinea pig (Hartley strain) heart
Description: Guinea pigs (Hartley strain) of either sex (400-700 g) were allowed at least two weeks acclimation period. The animals were housed two per cage in wire-meshed bottom stainless steel cages in animal quarters maintained on a 12 hour light:12 hour dark cycle with ambient temperature of approximately 24° C. Food (Ralston-Purina guinea pig chow #5025) and water were provided ad libitum.
(§1) The animals were stunned by a blow to the head and the heart was quickly removed and placed in Tyrode's solution (composition in g/L of distilled water: NaCl, 8.00; KCl, 0.20; MgSO4.7 H2 O, 0.10; CaCl2, 0.20; NaH2 PO4, 0.05; NaHCO3, 1.00; glucose, 1.00) at room temperature. All other tissue was carefully trimmed away, leaving only the right atrium. The base of the atrium was attached to a fixed pin in a 50 mL Magnus bath of the overflow type, while the atrial apex was similarly connected to a physiograph (Narco Bio-Systems) via a photoelectric force transducer (Narco Bio-Systems, sensitivity=0.05 g/cm). A 400 mg tension was constantly applied to the tissue. The Magnus bath was surrounded by water maintained at 37° C. with a constant temperature circulating pump. The bath was continually oxygenated (95% O2, 5% CO2) via a sintered glass gas delivery tube directly beneath the tissue support base.
Propanolol (1×10^-6 M) was added to each preparation in order to eliminate the influence of endogenously stored catecholamine release. Following the addition of propanolol, test compound was added and the tissue was allowed to equilibrate for 30 minutes.
Solutions of the test compounds were similarly prepared.
A straight line was fitted to the data points of each determination within each group by linear regression analysis. The slope and the ED50 were calculated from the regression line, the slopes and ED50 values of each group were averaged, and the standard deviations were calculated. Calculation of the linear regression gave values for the correlation coefficient (r) slope, average of x values, average of y values, and log ED50. With this information a straight line representing a mean of the data from the separate determinations of each group could be plotted, i.e. a straight line passing through the mean x value and the mean y value and having the mean slope. The 95 percent confidence limits were calculated using the following formula: confidence limits=±ts√N where t=Student's t value, s=standard deviation, and N=number of determinations.

[2] = biological target: histamine H1-receptor (isolated guinea pig ileum) (Cavia porcellus, UniProt P31389); assay: Histamine H1-receptor antagonism: histamine-induced contraction of isolated guinea pig ileum; details: result in words, 1×10^-6 M
Description: Compounds 11, 17, 18, and 19 were screened for H1 -antihistaminic activity by observing if any significant blockage of histamine-induced contraction of the isolated guinea pig ileum occurred. After sacrificing the guinea pig by a blow to the head, longitudinal segments of the terminal ileum were removed and freed of mesentery and blood vessels. The same apparatus and physiological solution employed in the atrial preparation were used in these experiments. The tissue was loaded with a 500 mg tension and adjustments were made repeatedly until the baseline stabilized at this tension load. Atropine sulfate (1×10^-6 M) was added to block the influence of endogenously stored acetylcholine and the preparation was allowed to equilibrate for 15 minutes before any other compounds were added. The concentration of test compound used was 1×10^-6 M. Visual determination of the absence of significant reduction in histamine-induced contractions of the ileum in the presence and absence of each test compound was interpreted as an absence of H1 -antihistaminic activity. Generally, H1 -antagonism is considered to be potent if significant reduction in ileal contractility occurs with antagonist concentrations less than micromolar.

peptic ulcers = details: cited from earlier work
H2-receptor = details: previously reported; read-out: KB (apparent dissociation constant), previously reported; cited from earlier work
isolated right atrium = assay: Agonist activity: effect of compound alone on heart rate or force of isolated right atrium; design: species or system guinea pig; details: cumulative additions, 10^-5 to 10^-3 M
Description: as §1
A KB value was not calculated since the utility of these values is contingent upon the presence of competitive inhibition. […] A non-competitive component of the antagonism would be expected to depress the curve. […] An additional experiment adding only 11 to the bath was carried out in an attempt to detect possible interfering agonist activity. […] The reason for this atypical curve is not known.

[3] = tested on: H2-receptor (guinea pig isolated right atrium); details: cited from earlier work
[4] = tested on: histamine-induced gastric acid secretion; details: dogs; cited from earlier work

histamine H1-receptor (isolated guinea pig ileum), sequence (P31389 whole entry): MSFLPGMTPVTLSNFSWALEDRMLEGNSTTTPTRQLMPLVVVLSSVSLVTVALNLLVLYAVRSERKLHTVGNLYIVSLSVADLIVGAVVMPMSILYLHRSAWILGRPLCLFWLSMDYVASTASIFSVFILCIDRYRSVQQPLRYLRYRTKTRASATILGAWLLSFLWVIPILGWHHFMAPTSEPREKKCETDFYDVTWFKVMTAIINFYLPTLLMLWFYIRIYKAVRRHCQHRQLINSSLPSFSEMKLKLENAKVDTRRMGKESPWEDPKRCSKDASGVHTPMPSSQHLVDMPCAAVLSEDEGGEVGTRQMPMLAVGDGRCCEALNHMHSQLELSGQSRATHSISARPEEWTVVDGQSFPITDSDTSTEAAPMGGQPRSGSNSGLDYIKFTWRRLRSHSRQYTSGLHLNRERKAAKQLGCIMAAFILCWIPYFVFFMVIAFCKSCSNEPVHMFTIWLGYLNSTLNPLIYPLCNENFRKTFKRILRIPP
T1 sequence (P47747 whole entry): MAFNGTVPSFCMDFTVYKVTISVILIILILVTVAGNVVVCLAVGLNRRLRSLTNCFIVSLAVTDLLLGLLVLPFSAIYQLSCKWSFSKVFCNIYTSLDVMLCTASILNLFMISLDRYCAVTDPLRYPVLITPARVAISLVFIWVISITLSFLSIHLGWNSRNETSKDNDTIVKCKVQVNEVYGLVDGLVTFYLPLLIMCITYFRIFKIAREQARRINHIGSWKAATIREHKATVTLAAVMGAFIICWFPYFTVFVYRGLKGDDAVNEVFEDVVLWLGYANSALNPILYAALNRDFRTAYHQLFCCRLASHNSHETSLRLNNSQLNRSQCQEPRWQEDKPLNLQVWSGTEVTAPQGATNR

Row | SMILES | Slope (95% CL) [1] | ED50 of histamine (95% CL) [1] | histamine H2-receptor antagonist activity [1] | H1-antihistaminic activity [2] | other results
1 | NCCc1c[nH]cn1 [histamine, reference compound] | 0.63 (0.50-0.76) |  |  |  | 
2 | CNC(=S)N[C@H]1C[C@H]2CC[C@@H](C1)N2Cc1nc[nH]c1C [Compound 17, N-Methyl-N'-[8-(5-methylimidazol-4-yl)methyl-1αH,5αH-nortropan-3α-yl]thiourea] | 0.64 (0.18-1.10) | 11.0 (4.37-27.5) × 10^-7 M | without any significant activity; also recorded: None of these compounds demonstrated significant histamine antagonist activity | None of these compounds demonstrated significant histamine antagonist activity | 
3 | CNC(=NC#N)N[C@@H]1C[C@H]2CC[C@@H](C1)N2Cc1nc[nH]c1C [Compound 19, N"-Cyano-N-methyl-N'-[8-(5-methylimidazol-4-yl)methyl-1αH,5αH-nortropan-3β-yl]guanidine] | 0.58 (0.23-0.93) | 6.92 (0.22-138.0) × 10^-7 M | without significant activity; also recorded: None of these compounds demonstrated significant histamine antagonist activity | None of these compounds demonstrated significant histamine antagonist activity | 
4 | CNC(=S)NCCSCc1nc[nH]c1C [metiamide, reference compound] | 0.47 (0.41-0.53) | 49.0 (30.9-77.6) × 10^-7 M | significant antagonism of the chronotropic effect of histamine |  | healing of peptic ulcers (peptic ulcers; clinical trials): effective in promoting the healing of peptic ulcers; safety in clinical use (peptic ulcers): found to produce agranulocytosis; Kb ([1]; KB=[B]/(dose ratio-1), 10^-6 M antagonist, read-out: KB (apparent dissociation constant)): 200 nM; ED50 of histamine on the right atrium [1]: 49.0±12.0 ×10^-7 M; slope / shift of the histamine log dose-response curve in presence of compound ([1]; 10^-6 M compound): parallel shift of the dose-response curves of histamine; Kb (H2-receptor): 920 nM
5 | CNC(=S)N[C@@H]1C[C@H]2CC[C@@H](C1)N2Cc1nc[nH]c1C [Compound 11, N-Methyl-N'-[8-(5-methylimidazol-4-yl)methyl-1αH,5αH-nortropan-3β-yl]thiourea] | 0.99 (0.95-1.03) | 40.7 (27.5-60.3) × 10^-7 M | active; also recorded: approximately the same antagonist activity as metiamide | none of these compounds demonstrated significant H1 -antihistiminic activity | maximum response obtained with histamine in presence of compound ([1]; 10^-6 M compound): 100%; slope / shift of the histamine log dose-response curve in presence of compound ([1]; 10^-6 M compound): significantly steeper (P<0.05) than for metiamide; also recorded: shifted to higher concentrations; histamine H2-receptor antagonist activity ([1]; listed as β-isomer): high H2 -antagonist activity; effect on heart rate or force of isolated right atrium, compound alone (isolated right atrium): without effect on heart rate or force
6 | CNC(=C[N+](=O)[O-])NCCSCc1ccc(CN(C)C)o1 [Ranitidine] |  |  |  |  | H2 antagonism [3]: competitive antagonist, more potent than cimetidine; prevention of histamine-induced gastric acid secretion [4]: more potent than cimetidine
7 | CNC(=NC#N)N[C@H]1C[C@H]2CC[C@@H](C1)N2Cc1nc[nH]c1C [Compound 18, N"-Cyano-N-methyl-N'-[8-(5-methylimidazol-4-yl)methyl-1αH,5αH-nortropan-3α-yl]guanidine] | 0.64 (0.18-1.10) | 11.0 (5.01-24.0) × 10^-7 M | without significant activity; also recorded: None of these compounds demonstrated significant histamine antagonist activity | None of these compounds demonstrated significant histamine antagonist activity | 
8 | CN/C(=N/CCSCc1nc[nH]c1C)NC#N [cimetidine, reference compound] | 0.67 (0.28-1.06) | 49.0 (43.7-55.0) × 10^-7 M | significant antagonism of the chronotropic effect of histamine |  | safety in clinical use (peptic ulcers): generally a safe agent; ED50 of histamine on the right atrium [1]: 49.0±12.0 ×10^-7 M
